Seven molecules from ChEMBL document CHEMBL1127262, “Novel HIV01 protease inhibitors containing A -hydroxy sulfide isostere” (Bioorg Med Chem Lett, 1994) can be followed below.

≈ marks a conversion by molar mass, not a printed value.

Assay [1] concerns the target Human immunodeficiency virus type 1 protease (Human immunodeficiency virus 1, UniProt Q72874). The experiment in a line: Compound was tested for inhibitory activity against isolated HIV-1 protease.
The test system of the next assay is MT2. In words: Compound was tested for whole cell antiviral activity against MT2 cell lines. The class given is functional, cell-based. The settings on record: Homo sapiens.
Another assay has as its system CCRF-CEM. The experiment in a line: Compound was tested for whole cell antiviral activity against CEM cell lines. The settings on record: Homo sapiens. The format is functional, cell-based.
Assay [2] has as its target Human immunodeficiency virus type 1 protease (Human immunodeficiency virus 1) (UniProt Q72874). The experiment in a line: Percent inhibition against isolated HIV-1 protease at a concentration of 1 ug/ml.

Usually IC50 stands for the concentration that inhibits the measured activity by half. For `CC(C)(C)NC(=O)c1ccccc1SC[C@@H](O)[C@H](Cc1ccccc1)NC(=O)[C@H](CC(N)=O)NC(=O)c1ccc2ccccc2n1`, the IC50 is 13.4 nM in assay [1], 0.41 µg/mL (≈ 0.639 µM) in the assay with MT2 and 0.48 µg/mL (≈ 0.748 µM) in the assay on CCRF-CEM.
As for `CC(C)(C)NC(=O)c1ccccc1C[C@@H](O)[C@H](Cc1ccccc1)NC(=O)[C@H](CC(N)=O)NC(=O)c1ccc2ccccc2n1`, the IC50 with MT2 was 0.0317 µg/mL (≈ 0.052 µM); with CCRF-CEM, 0.0137 µg/mL (≈ 0.0224 µM).
By inhibition is commonly meant how much of the control response was suppressed. Higher therefore signals a strong effect. For `CC(C)(C)NC(=O)c1ccccc1[S+]([O-])C[C@@H](O)[C@H](Cc1ccccc1)NC(=O)[C@H](CC(N)=O)NC(=O)c1ccc2ccccc2n1` (stereo in doubt; 16b), the inhibition in assay [2] is 28%.
Still for that read-out and setting: then `CC(C)(C)NC(=O)c1ccccc1[S+]([O-])C[C@@H](O)[C@H](Cc1ccccc1)NC(=O)[C@H](CC(N)=O)NC(=O)c1ccc2ccccc2n1` (stereo in doubt; 16a), with 69%.
As for `CC(C)(C)NC(=O)c1ccccc1SC[C@H](O)[C@H](Cc1ccccc1)NC(=O)[C@H](CC(N)=O)NC(=O)c1ccc2ccccc2n1`, the IC50 is 56.1 nM in assay [1], 4.38 µg/mL (≈ 6.82 µM) with MT2 and 4.99 µg/mL (≈ 7.78 µM) in the assay with CCRF-CEM.
Take `CC(C)(C)NC(=O)c1ccccc1SC[C@@H](O)[C@H](Cc1ccccc1)NC(=O)[C@H](Cc1c[nH]cn1)NC(=O)c1ccc2ccccc2n1`: the IC50 in assay [1] is 208 nM. This lies in the sub-micromolar range.
Same read-out and setting: the value for `CC(C)(C)NC(=O)c1ccccc1S(=O)(=O)C[C@@H](O)[C@H](Cc1ccccc1)NC(=O)[C@H](CC(N)=O)NC(=O)c1ccc2ccccc2n1` was 509 nM.
